Reference: patent US8735321B2, “Process for the production of particles comprising active agrochemical ingredients in amorphous form” (priority 2008, dated 2014)

Test: crystal formation of active ingredient mixtures from acetone after one week storage at 20° C.
Assay type: physicochemical
Conditions: stored one week at 20° C.
Method: The active ingredients were dissolved in acetone (see Table 1) and combined to give the mixing ratios (Table 2). The acetone was evaporated for two days at room temperature and then stripped off in vacuum for 5 h at 80° C. (method A). Temperature-insensitive active ingredients Were subsequently melted for an additional 15 h at 140° C. (method B). The samples were cooled to 20° C. in each case and stored for one week at 20° C.

[1] = method B (as A, then melted 15 h at 140° C.)

Compound | Crystal formation [1] | Crystal formation (method A (acetone evaporated, vacuum 5 h at 80° C.))
Fc1ccc([C@]2(Cn3cncn3)O[C@H]2c2ccccc2Cl)cc1 (racemic) [Epoxiconazole] | Yes | –
COCC(=O)N(c1c(C)cccc1C)C(C)C(=O)OC (centres unmarked) [Metalaxyl] | – | Yes
Cn1cc(C(=O)Nc2ccccc2-c2cc(F)c(F)c(F)c2)c(C(F)F)n1 [Fungicide A, N-(3′,4′,5′-trifluorobiphenyl-2-yl)-3-difluoromethyl-1-methyl-1H-pyrazole-4-carboxamide] | Yes | –
CC1(C)CCC(=Cc2ccc(Cl)cc2)C1(O)Cn1cncn1 (centres unmarked) [Triticonazole] | Yes | –
O=C(Nc1ccccc1-c1ccc(Cl)cc1)c1cccnc1Cl [Boscalid] | Yes | –
